The results in this text go back to paper PMC3599355, “Discovery and characterization of a highly efficient enantioselective mandelonitrile hydrolase from Burkholderia cenocepacia J2315 by phylogeny-based enzymatic substrate specificity prediction” (BMC Biotechnology, 2013).

The target in the assay is T1, BCJ2315 (Burkholderia cenocepacia, UniProt B4E7T0).
T1 construct: gene BCAL2585; full-length gene in pQE30 (BamHI/HindIII), His-tag kept, E. coli M15; 37 kDa subunit, native about 450 kDa, 12 identical subunits
T1 sequence (B4E7T0 entry or part of it): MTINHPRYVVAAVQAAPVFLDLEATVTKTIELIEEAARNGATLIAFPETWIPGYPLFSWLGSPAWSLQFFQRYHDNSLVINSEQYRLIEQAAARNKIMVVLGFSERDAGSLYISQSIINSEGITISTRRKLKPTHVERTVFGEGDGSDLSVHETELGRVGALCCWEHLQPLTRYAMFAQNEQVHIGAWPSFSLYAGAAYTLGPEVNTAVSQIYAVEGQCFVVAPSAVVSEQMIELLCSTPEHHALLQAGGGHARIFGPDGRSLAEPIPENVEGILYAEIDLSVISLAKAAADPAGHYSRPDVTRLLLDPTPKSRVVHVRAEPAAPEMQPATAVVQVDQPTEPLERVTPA
Nature of the assay: HPLC hydrolysis assay, Lineweaver-Burk. Particulars: standard assay: 100 mM sodium phosphate pH 7.0, 30 °C; mandelonitrile 0.1 to 15 mM; stereo form not stated. The class given is biochemical.

The term Km denotes the substrate concentration at which the rate is half of its maximum. For the compound `N#CC(O)c1ccccc1` (stereo not shown) [mandelonitrile], the Km came to 140 µM.
